Reference: PubChem BioAssay (NCI)
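Compound exposure: 48 hours, 5 concentrations, 96-well plates. Here, GI50 denotes the concentration required for 50% inhibition of growth. At the TGI there is no net growth.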

What was measured:
Assay in all cases: NCI anticancer screen, dose series, 48 h
SK-OV-3 ovarian = system: SK-OV-3 ovarian
NCI-H522 lung = system: NCI-H522 lung
NCI/ADR-RES ovarian = system: NCI/ADR-RES ovarian
RXF 393 renal = system: RXF 393 renal
M14 melanoma = system: M14 melanoma
TK-10 renal = system: TK-10 renal
ACHN renal = system: ACHN renal
HOP-92 NSCLC = system: HOP-92 NSCLC
SN12C renal = system: SN12C renal
PC-3 prostate = system: PC-3 prostate
K-562 leukemia = system: K-562 leukemia
OVCAR-4 ovarian = system: OVCAR-4 ovarian
OVCAR-8 ovarian = system: OVCAR-8 ovarian
IGROV1 ovarian = system: IGROV1 ovarian
MOLT-4 leukemia = system: MOLT-4 leukemia
NCI-H226 lung = system: NCI-H226 lung
CAKI-1 renal = system: CAKI-1 renal
DU-145 prostate = system: DU-145 prostate
SK-MEL-5 melanoma = system: SK-MEL-5 melanoma
SF-268 CNS = system: SF-268 CNS
A498 renal = system: A498 renal
T-47D breast = system: T-47D breast
SR leukemia = system: SR leukemia
MDA-MB-435 = system: MDA-MB-435
HCT-116 colon = system: HCT-116 colon
HT29 colon = system: HT29 colon
EKVX NSCLC = system: EKVX NSCLC
SNB-19 CNS = system: SNB-19 CNS
SNB-75 CNS = system: SNB-75 CNS
HS 578T breast = system: HS 578T breast
OVCAR-3 ovarian = system: OVCAR-3 ovarian
CCRF-CEM leukemia = system: CCRF-CEM leukemia
RPMI-8226 leukemia = system: RPMI-8226 leukemia
LOX IMVI melanoma = system: LOX IMVI melanoma
U251 CNS = system: U251 CNS
A549 NSCLC = system: A549 NSCLC
UO-31 renal = system: UO-31 renal
SK-MEL-2 melanoma = system: SK-MEL-2 melanoma
786-0 renal = system: 786-0 renal
NCI-H460 lung = system: NCI-H460 lung
HOP-62 NSCLC = system: HOP-62 NSCLC
MDA-MB-231 breast = system: MDA-MB-231 breast
OVCAR-5 ovarian = system: OVCAR-5 ovarian
UACC-257 melanoma = system: UACC-257 melanoma
HCC-2998 colon = system: HCC-2998 colon
MCF7 breast = system: MCF7 breast
HCT-15 colon = system: HCT-15 colon
SK-MEL-28 melanoma = system: SK-MEL-28 melanoma
NCI-H23 lung = system: NCI-H23 lung
COLO 205 colon = system: COLO 205 colon
SW-620 colon = system: SW-620 colon
MALME-3M melanoma = system: MALME-3M melanoma
SF-539 CNS = system: SF-539 CNS
SF-295 CNS = system: SF-295 CNS
KM12 colon = system: KM12 colon
UACC-62 melanoma = system: UACC-62 melanoma
BT-549 breast = system: BT-549 breast

## O=C(CC1(O)C(=O)N(Cc2ccccc2)c2ccc(Cl)cc21)c1ccc(C(=O)NCC2CCC3(CC2)OOC2(CCCCC2)OO3)cc1 (centres undefined)
SK-OV-3 ovarian
  GI50: 3480 nM
  TGI: > 21100 nM
NCI-H522 lung
  GI50: 169 nM
  TGI: 373 nM
NCI/ADR-RES ovarian
  GI50: 271 nM
  TGI: 833 nM
RXF 393 renal
  GI50: 247 nM
  TGI: 608 nM
M14 melanoma
  GI50: 2520 nM
  TGI: 17300 nM
TK-10 renal
  GI50: 181 nM
  TGI: 358 nM
ACHN renal
  GI50: 180 nM
  TGI: 357 nM
HOP-92 NSCLC
  GI50: 214 nM
  TGI: 402 nM
SN12C renal
  GI50: 797 nM
  TGI: 2380 nM
PC-3 prostate
  GI50: 1330 nM
  TGI: 9110 nM
K-562 leukemia
  GI50: 1570 nM
  TGI: > 100000 nM
OVCAR-4 ovarian
  GI50: 2450 nM
  TGI: 11500 nM
OVCAR-8 ovarian
  GI50: 295 nM
  TGI: 758 nM
IGROV1 ovarian
  GI50: 197 nM
  TGI: 444 nM
MOLT-4 leukemia
  GI50: 1590 nM
  TGI: 4560 nM
NCI-H226 lung
  GI50: 1720 nM
  TGI: 9060 nM
CAKI-1 renal
  GI50: 418 nM
  TGI: 864 nM
DU-145 prostate
  GI50: 179 nM
  TGI: 326 nM
SK-MEL-5 melanoma
  GI50: 1890 nM
  TGI: 4560 nM
SF-268 CNS
  GI50: 1400 nM
  TGI: 3670 nM
A498 renal
  GI50: 1770 nM
  TGI: 4130 nM
T-47D breast
  GI50: 653 nM
  TGI: 3380 nM
SR leukemia
  GI50: 214 nM
  TGI: 531 nM
MDA-MB-435
  GI50: 394 nM
  TGI: 1400 nM
HCT-116 colon
  GI50: 1300 nM
  TGI: 4290 nM
HT29 colon
  GI50: 236 nM
  TGI: 544 nM
EKVX NSCLC
  GI50: 306 nM
  TGI: 1080 nM
SNB-19 CNS
  GI50: 5340 nM
  TGI: > 100000 nM
SNB-75 CNS
  GI50: 1350 nM
  TGI: 3390 nM
HS 578T breast
  GI50: 2110 nM
  TGI: 11600 nM
OVCAR-3 ovarian
  GI50: 197 nM
  TGI: 419 nM
CCRF-CEM leukemia
  GI50: 274 nM
  TGI: 662 nM
RPMI-8226 leukemia
  GI50: 462 nM
  TGI: 2180 nM
LOX IMVI melanoma
  GI50: 57.3 nM
  TGI: 197 nM
U251 CNS
  GI50: 211 nM
  TGI: 426 nM
A549 NSCLC
  GI50: 215 nM
  TGI: 456 nM
UO-31 renal
  GI50: 134 nM
  TGI: 289 nM
SK-MEL-2 melanoma
  GI50: 1870 nM
  TGI: 4410 nM
786-0 renal
  GI50: 192 nM
  TGI: 367 nM
NCI-H460 lung
  GI50: 231 nM
  TGI: 491 nM
HOP-62 NSCLC
  GI50: 189 nM
  TGI: 390 nM
MDA-MB-231 breast
  GI50: 327 nM
  TGI: 988 nM
OVCAR-5 ovarian
  GI50: 644 nM
  TGI: 6280 nM
UACC-257 melanoma
  GI50: 8610 nM
  TGI: > 100000 nM
HCC-2998 colon
  GI50: 1310 nM
  TGI: 3020 nM
MCF7 breast
  GI50: 1810 nM
  TGI: 66200 nM
HCT-15 colon
  GI50: 573 nM
  TGI: 2430 nM
SK-MEL-28 melanoma
  GI50: 8350 nM
  TGI: > 100000 nM
NCI-H23 lung
  GI50: 204 nM
  TGI: 477 nM
COLO 205 colon
  GI50: 626 nM
  TGI: 1660 nM
SW-620 colon
  GI50: 2210 nM
  TGI: 5880 nM
MALME-3M melanoma
  GI50: 209 nM
  TGI: 537 nM
SF-539 CNS
  GI50: 191 nM
  TGI: 379 nM
SF-295 CNS
  GI50: 570 nM
  TGI: 1340 nM
KM12 colon
  GI50: 268 nM
  TGI: 782 nM
UACC-62 melanoma
  GI50: 6260 nM
  TGI: 77700 nM
BT-549 breast
  GI50: 2420 nM
  TGI: 15000 nM
